Measurements reported in patent US20240301409A1, “Chemically Modified Small Activating RNA” (RACTIGEN THERAPEUTICS, priority 2021, published 2024).

Test system: J82 cells
Experiment: Cellular proliferation assay (CCK8) in J82 cells, combined with Mitomycin C or valrubicin
Format: cell-based, human
Protocol: J82 cells were transfected with RAG1-40-31 at concentrations of 0.1, 0.5, 1, 5, 10, 25 and 50 nM for 24 hours, and then Mitomycin C at concentrations of 1, 10, 100, 1000 and 10000 nM was added. The combined treatment was carried out with concentrations in pairs. After treatment, the proliferation of cells was detected using CCK8 kit. FIGS. 14A-14B show the relative proliferation proportion of J82 cells after the combined treatment with chemically modified saRNA RAG1-40-31 and valrubicin. […] Control and DMSO are the blank transfection control and the solvent for dilution control, respectively.
J82 cells were transfected with RAG1-40-31 at concentrations of 0.1, 0.5, 1, 5, 10, 25 and 50 nM for 24 hours, and then valrubicin at concentrations of 1, 10, 100, 1000 and 10000 nM was added. The combined treatment was carried out with concentrations in pairs. After treatment, the cellular proliferation was detected by CCK8 kit. FIGS. 15A-15B show the relative proliferation proportion of T24 cells after the combined treatment with chemically modified saRNA RAG1-40-31 and Mitomycin C. […] Control and DMSO are the blank transfection control and the solvent for dilution control, respectively.
Human bladder cancer cells Ku-7-LG (ATCC), J82 (ATCC) and T24 (ATCC) were cultured in McCoy medium (Gibco) comprising 10% calf serum (Sigma-Aldrich) and 1% penicillin/Streptomycin (Gibco). Cells were cultured at 37° C. under 5% CO2. Ku-7-LG, J82 and T24 cells were plated into 12-well plates at 10×10^4 cells per well, transfected with the small RNA at a concentration of 10 nM (unless otherwise specified) for three days, using RNAiMax (Invitrogen, Carlsbad, CA) according to the manufacturer's instructions. Two replicate wells were set for each treatment.
Cells were plated in a 96-well plate at 2˜4×10^3 cells/well, cultured overnight, and transfected with the oligonucleotide duplexes. Three days after transfection, CCK8 (Dojindo) was used to detect cellular proliferation following manufacturer's instructions. The experimental steps are briefly described as follows: 10 μL of CCK8 solution was added to each well, incubated at 37° C. for 1 hour, and then the absorbance at 450 nm was measured using a microplate reader.
In this example, chemically modified saRNA RAG1-40-31 was used in combination with clinical chemical agents to evaluate the suppressing effect of the combined agents on cancer cells.

RAG1-40-31: saRNA duplex: sense fCfCAACUCAUUCUCCAAG*U*C (SEQ ID NO 16); antisense U*A*fCfUfUGGAGAAfUGAGfUfUGG*fC*A (SEQ ID NO 12) (sense CCAACUCAUUCUCCAAGUC; antisense UACUUGGAGAAUGAGUUGGCA; 2'-F and phosphorothioate modifications; modified_base (1)..(2) (1,2)=2′-fluoro; modified_base (17)..(19) (17,18,19)=phosphorothioate (PS) backbone modification; modified_base (2)..(21) (2,3,19,20,21)=phosphorothioate (PS) backbone modification; modified_base (3)..(20) (3,4,5,12,16,17,20)=2′-fluoro)
Relative proliferation proportion of J82 cells (RAG1-40-31 0.1 nM + MMC 10000 nM): 1.5% | Relative proliferation proportion of J82 cells (RAG1-40-31 0.1 nM + valrubicin 1 nM): 71.0% | Relative proliferation proportion of J82 cells (RAG1-40-31 0.1 nM + valrubicin 10 nM): 58.2% | Relative proliferation proportion of J82 cells (RAG1-40-31 0.1 nM + valrubicin 100 nM): 73.2% | Relative proliferation proportion of J82 cells (RAG1-40-31 0.1 nM + valrubicin 1000 nM): 26.9% | Relative proliferation proportion of J82 cells (RAG1-40-31 0.1 nM + valrubicin 10000 nM): 9.9% | Relative proliferation proportion of J82 cells (RAG1-40-31 0.1 nM, Control (no MMC)): 97.9% | Relative proliferation proportion of J82 cells (RAG1-40-31 0.1 nM, Control (no valrubicin)): 85.1% | Relative proliferation proportion of J82 cells (RAG1-40-31 0.5 nM + MMC 1 nM): 70.1% | Relative proliferation proportion of J82 cells (RAG1-40-31 0.5 nM + MMC 10 nM): 69.3% | Relative proliferation proportion of J82 cells (RAG1-40-31 0.5 nM + MMC 100 nM): 34.9% | Relative proliferation proportion of J82 cells (RAG1-40-31 0.5 nM + MMC 1000 nM): 10.8% | Relative proliferation proportion of J82 cells (RAG1-40-31 0.5 nM + MMC 10000 nM): 0.9% | Relative proliferation proportion of J82 cells (RAG1-40-31 0.5 nM + valrubicin 1 nM): 62.4% | Relative proliferation proportion of J82 cells (RAG1-40-31 0.5 nM + valrubicin 10 nM): 54.1% | Relative proliferation proportion of J82 cells (RAG1-40-31 0.5 nM + valrubicin 100 nM): 72.8% | Relative proliferation proportion of J82 cells (RAG1-40-31 0.5 nM + valrubicin 1000 nM): 24.4% | Relative proliferation proportion of J82 cells (RAG1-40-31 0.5 nM + valrubicin 10000 nM): 7.7% | Relative proliferation proportion of J82 cells (RAG1-40-31 0.5 nM, Control (no MMC)): 89.9% | Relative proliferation proportion of J82 cells (RAG1-40-31 0.5 nM, Control (no valrubicin)): 77.8% | Relative proliferation proportion of J82 cells (RAG1-40-31 1 nM + MMC 1 nM): 55.8% | Relative proliferation proportion of J82 cells (RAG1-40-31 1 nM + MMC 10 nM): 57.2% | Relative proliferation proportion of J82 cells (RAG1-40-31 1 nM + MMC 100 nM): 30.1% | Relative proliferation proportion of J82 cells (RAG1-40-31 1 nM + MMC 1000 nM): 9.3% | Relative proliferation proportion of J82 cells (RAG1-40-31 1 nM + MMC 10000 nM): 1.4% | Relative proliferation proportion of J82 cells (RAG1-40-31 1 nM + valrubicin 1 nM): 59.8% | Relative proliferation proportion of J82 cells (RAG1-40-31 1 nM + valrubicin 10 nM): 51.6% | Relative proliferation proportion of J82 cells (RAG1-40-31 1 nM + valrubicin 100 nM): 54.4% | Relative proliferation proportion of J82 cells (RAG1-40-31 1 nM + valrubicin 1000 nM): 22.7% | Relative proliferation proportion of J82 cells (RAG1-40-31 1 nM + valrubicin 10000 nM): 7.5% | Relative proliferation proportion of J82 cells (RAG1-40-31 1 nM, Control (no MMC)): 79.8% | Relative proliferation proportion of J82 cells (RAG1-40-31 1 nM, Control (no valrubicin)): 73.9% | Relative proliferation proportion of J82 cells (RAG1-40-31 5 nM + MMC 1 nM): 42.8% | Relative proliferation proportion of J82 cells (RAG1-40-31 5 nM + MMC 10 nM): 40.8% | Relative proliferation proportion of J82 cells (RAG1-40-31 5 nM + MMC 100 nM): 26.2% | Relative proliferation proportion of J82 cells (RAG1-40-31 5 nM + MMC 1000 nM): 7.2% | Relative proliferation proportion of J82 cells (RAG1-40-31 5 nM + MMC 10000 nM): 1.2% | Relative proliferation proportion of J82 cells (RAG1-40-31 5 nM + valrubicin 1 nM): 37.9% | Relative proliferation proportion of J82 cells (RAG1-40-31 5 nM + valrubicin 10 nM): 46.6% | Relative proliferation proportion of J82 cells (RAG1-40-31 5 nM + valrubicin 100 nM): 50.9% | Relative proliferation proportion of J82 cells (RAG1-40-31 5 nM + valrubicin 1000 nM): 22.6% | Relative proliferation proportion of J82 cells (RAG1-40-31 5 nM + valrubicin 10000 nM): 5.5% | Relative proliferation proportion of J82 cells (RAG1-40-31 5 nM, Control (no MMC)): 59.3% | Relative proliferation proportion of J82 cells (RAG1-40-31 5 nM, Control (no valrubicin)): 58.4% | Relative proliferation proportion of J82 cells (RAG1-40-31 10 nM + MMC 1 nM): 37.0% | Relative proliferation proportion of J82 cells (RAG1-40-31 10 nM + MMC 10 nM): 37.7% | Relative proliferation proportion of J82 cells (RAG1-40-31 10 nM + MMC 100 nM): 22.2% | Relative proliferation proportion of J82 cells (RAG1-40-31 10 nM + MMC 1000 nM): 6.9% | Relative proliferation proportion of J82 cells (RAG1-40-31 10 nM + MMC 10000 nM): 1.0% | Relative proliferation proportion of J82 cells (RAG1-40-31 10 nM + valrubicin 1 nM): 33.1% | Relative proliferation proportion of J82 cells (RAG1-40-31 10 nM + valrubicin 10 nM): 37.1% | Relative proliferation proportion of J82 cells (RAG1-40-31 10 nM + valrubicin 100 nM): 40.4% | Relative proliferation proportion of J82 cells (RAG1-40-31 10 nM + valrubicin 1000 nM): 20.3% | Relative proliferation proportion of J82 cells (RAG1-40-31 10 nM + valrubicin 10000 nM): 4.3% | Relative proliferation proportion of J82 cells (RAG1-40-31 10 nM, Control (no MMC)): 48.9% | Relative proliferation proportion of J82 cells (RAG1-40-31 10 nM, Control (no valrubicin)): 50.6% | Relative proliferation proportion of J82 cells (RAG1-40-31 25 nM + MMC 1 nM): 20.8% | Relative proliferation proportion of J82 cells (RAG1-40-31 25 nM + MMC 10 nM): 25.7% | Relative proliferation proportion of J82 cells (RAG1-40-31 25 nM + MMC 100 nM): 17.2% | Relative proliferation proportion of J82 cells (RAG1-40-31 25 nM + MMC 1000 nM): 5.0% | Relative proliferation proportion of J82 cells (RAG1-40-31 25 nM + MMC 10000 nM): 0.4% | Relative proliferation proportion of J82 cells (RAG1-40-31 25 nM + valrubicin 1 nM): 26.1% | Relative proliferation proportion of J82 cells (RAG1-40-31 25 nM + valrubicin 10 nM): 23.9% | Relative proliferation proportion of J82 cells (RAG1-40-31 25 nM + valrubicin 100 nM): 26.3% | Relative proliferation proportion of J82 cells (RAG1-40-31 25 nM + valrubicin 1000 nM): 13.3% | Relative proliferation proportion of J82 cells (RAG1-40-31 25 nM + valrubicin 10000 nM): 2.7% | Relative proliferation proportion of J82 cells (RAG1-40-31 25 nM, Control (no MMC)): 38.4% | Relative proliferation proportion of J82 cells (RAG1-40-31 25 nM, Control (no valrubicin)): 45.6% | Relative proliferation proportion of J82 cells (RAG1-40-31 50 nM + MMC 1 nM): 25.9% | Relative proliferation proportion of J82 cells (RAG1-40-31 50 nM + MMC 10 nM): 25.8% | Relative proliferation proportion of J82 cells (RAG1-40-31 50 nM + MMC 100 nM): 13.9% | Relative proliferation proportion of J82 cells (RAG1-40-31 50 nM + MMC 1000 nM): 3.4% | Relative proliferation proportion of J82 cells (RAG1-40-31 50 nM + MMC 10000 nM): 0.6% | Relative proliferation proportion of J82 cells (RAG1-40-31 50 nM + valrubicin 1 nM): 19.7% | Relative proliferation proportion of J82 cells (RAG1-40-31 50 nM + valrubicin 10 nM): 21.4% | Relative proliferation proportion of J82 cells (RAG1-40-31 50 nM + valrubicin 100 nM): 23.9% | Relative proliferation proportion of J82 cells (RAG1-40-31 50 nM + valrubicin 1000 nM): 14.8% | Relative proliferation proportion of J82 cells (RAG1-40-31 50 nM + valrubicin 10000 nM): 3.2% | Relative proliferation proportion of J82 cells (RAG1-40-31 50 nM, Control (no MMC)): 34.8% | Relative proliferation proportion of J82 cells (RAG1-40-31 50 nM, Control (no valrubicin)): 33.5%
